From the supplement of paper PMC4862054

Experiments:
Conditions in all cases: incubation time: 72 h
[1] = test system: MFM-223; test: normalised viability (% of control), CellTiter-Blue; higher = more viable cells (100 = DMSO, 0 = benzethonium chloride kill control)
Summary of the method: (§1)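 The reported figure is normalised viability at a single listed concentration of the series. Breast cancer cell lines (20 µl suspension) went onto 384-well plates holding compound in 5 µl medium for 72 h. CellTiter-Blue (2.5 µl, 2 h, 37 °C) was read by fluorescence at 560/590 nm, and each plate was scaled to vehicle at 100 and a positive kill control at 0.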

[2] = test system: MDA-MB-231; test: as above
Summary of the method: as §1

[3] = test system: SK-BR-3; test: as above
Summary of the method: as §1

[4] = test system: CAL-148; test: as above
Summary of the method: as §1

[5] = test system: DU-4475; test: as above
Summary of the method: as §1

[6] = test system: CAL-85-1; test: as above
Summary of the method: as §1

[7] = test system: MDA-MB-468; test: as above
Summary of the method: as §1

[8] = test system: CAL-51; test: as above
Summary of the method: as §1

[9] = test system: HDQ-P1; test: as above
Summary of the method: as §1

[10] = test system: BT-474; test: as above
Summary of the method: as §1

[11] = test system: BT-549; test: as above
Summary of the method: as §1

[12] = test system: MDA-MB-453; test: as above
Summary of the method: as §1

[13] = test system: HCC1937; test: as above
Summary of the method: as §1

[14] = test system: HCC1599; test: as above
Summary of the method: as §1

[15] = test system: CAL-120; test: as above
Summary of the method: as §1

[16] = test system: MDA-MB-436; test: as above
Summary of the method: as §1

[17] = test system: Hs578T; test: as above
Summary of the method: as §1

[18] = test system: HCC1143; test: as above
Summary of the method: as §1

[19] = test system: MFM-223; test: normalised response (% of control), CellTiter-Glo; higher = more viable cells (100 = DMSO, 0 = benzethonium chloride kill control)
Summary of the method: (§2)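 CellTox Green fluorescence (485/520 nm) and, after 10 min at room temperature, CellTiter-Glo luminescence were read from breast cancer cell lines incubated 72 h in 384-well plates. Cells were seeded as 20 µl suspension onto compound at 5 concentrations in 10-fold steps over a 10,000-fold range chosen per compound. Each plate was normalised to 0.1 % DMSO (100) and a positive kill control (0). Values are normalised signals, one per concentration.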

[20] = test system: MDA-MB-231; test: as above
Summary of the method: as §2

[21] = test system: SK-BR-3; test: as above
Summary of the method: as §2

[22] = test system: CAL-148; test: as above
Summary of the method: as §2

[23] = test system: DU-4475; test: as above
Summary of the method: as §2

[24] = test system: CAL-85-1; test: as above
Summary of the method: as §2

[25] = test system: MCF-10A; test: as above
Summary of the method: as §2

[26] = test system: MDA-MB-468; test: as above
Summary of the method: as §2

[27] = test system: CAL-51; test: as above
Summary of the method: as §2

[28] = test system: HDQ-P1; test: as above
Summary of the method: as §2

[29] = test system: BT-474; test: as above
Summary of the method: as §2

[30] = test system: BT-549; test: as above
Summary of the method: as §2

[31] = test system: MDA-MB-453; test: as above
Summary of the method: as §2

[32] = test system: HCC1937; test: as above
Summary of the method: as §2

[33] = test system: HCC1599; test: as above
Summary of the method: as §2

[34] = test system: CAL-120; test: as above
Summary of the method: as §2

[35] = test system: MDA-MB-436; test: as above
Summary of the method: as §2

[36] = test system: Hs578T; test: as above
Summary of the method: as §2

[37] = test system: HCC1143; test: as above
Summary of the method: as §2

SMILES	normalised viability [1]	normalised viability [2]	normalised viability [3]	normalised viability [4]	normalised viability [5]	normalised viability [6]	normalised viability [7]	normalised viability [8]	normalised viability [9]	normalised viability [10]	normalised viability [11]	normalised viability [12]	normalised viability [13]	normalised viability [14]	normalised viability [15]	normalised viability [16]	normalised viability [17]	normalised viability [18]	normalised response [19]	normalised response [20]	normalised response [21]	normalised response [22]	normalised response [23]	normalised response [24]	normalised response [25]	normalised response [26]	normalised response [27]	normalised response [28]	normalised response [29]	normalised response [30]	normalised response [31]	normalised response [32]	normalised response [33]	normalised response [34]	normalised response [35]	normalised response [36]	normalised response [37]
C[C@]12C=CC(=O)C=C1CC[C@@H]1[C@@H]2C(=O)C[C@@]2(C)[C@H]1CC[C@]2(O)C(=O)CO [Prednisone] (1 nM)	96.2%	95.9%	90.8%	101%	110%	100%	104%	99.5%	98.1%	126%	105%	103%	93.5%	113%	84.3%	110%	104%	92.8%	106%	98.5%	109%	106%	103%	99.1%	98.2%	104%	92.7%	101%	99.4%	99.8%	111%	99.9%	100%	109%	110%	97.1%	101%
CO[C@H]1C[C@@H]2CC[C@@H](C)[C@@](O)(O2)C(=O)C(=O)N2CCCC[C@H]2C(=O)O[C@H]([C@H](C)C[C@@H]2CC[C@@H](O)[C@H](OC)C2)CC(=O)[C@H](C)/C=C(\C)[C@@H](O)[C@@H](OC)C(=O)[C@H](C)C[C@H](C)/C=C/C=C/C=C/1C [Sirolimus] (0.1 nM)	80.3%	85.2%	90.8%	105%	94.8%	93.9%	94.3%	78.8%	100%	84.2%	88%	99.4%	85.3%	91.9%	102%	103%	74.4%	105%	100%	96.9%	91.1%	101%	98.9%	96.1%	108%	93.8%	96.3%	100%	101%	89.9%	95%	103%	108%	94%	94.3%	102%	102%
CN1CCN(c2nc(C3=C(c4c[nH]c5ccccc45)C(=O)NC3=O)c3ccccc3n2)CC1 [Sotrastaurin] (1 nM)	100%	94.1%	91.3%	116%	104%	109%	97.7%	97%	85.2%	116%	86.1%	102%	89.5%	95.2%	117%	104%	101%	131%	93%	98%	93.3%	94.8%	97.5%	93%	88%	104%	100%	99.8%	90.6%	103%	96.9%	99%	89.5%	97%	94%	99.2%	89.9%
CC/C(=C(\c1ccccc1)c1ccc(OCCN(C)C)cc1)c1ccccc1 [Tamoxifen] (1 nM)	93.3%	95.1%	102%	113%	104%	110%	106%	90.2%	105%	81.7%	81.6%	107%	88.8%	84.7%	104%	96%	118%	104%	102%	106%	103%	103%	98.6%	101%	111%	104%	99.3%	103%	105%	96.4%	110%	102%	94.3%	99%	109%	102%	109%
COc1cc2c(N3CCN(C(=O)Nc4ccc(OC(C)C)cc4)CC3)ncnc2cc1OCCCN1CCCCC1 [Tandutinib] (0.1 nM)	96.7%	85.3%	106%	107%	109%	101%	105%	107%	116%	114%	111%	102%	67.1%	98%	98.7%	104%	120%	103%	105%	104%	96.7%	102%	104%	101%	95.5%	104%	82.2%	111%	107%	99.8%	96.1%	92.9%	113%	101%	97.3%	97.3%	97.9%
C[C@@H](C(=O)O)c1ccc(-c2ccccc2)c(F)c1 [Tarenflurbil] (1 nM)	97.5%	88.8%	87.9%	97.1%	111%	92.7%	107%	110%	85.4%	114%	99.2%	107%	108%	128%	93.7%	103%	101%	108%	93.5%	98.1%	84.6%	98.8%	95.6%	91.3%	85.5%	97.1%	83.3%	96.8%	93.8%	103%	103%	92.7%	113%	98.1%	102%	99.1%	94.2%
